Read-outs that look alike come from different tables or passages of the source. Non-standard residues stand in square brackets, D forms with d. Residues, ends and D or L forms follow the SMILES beside them.
How the values were obtained:
[1] = counter-ions studied during the initial salt screening; cited from earlier work
[2] = Qualitative solubility in water; assay type: physicochemical; settings: at RT
Excerpt: No signs of acetic acid were observed.

[3] = Exposure of amorphous salts to humidity (saturated NaCl solution, 75% RH at room temperature) for stability assessment; assay type: physicochemical; settings: for behaviour on exposure to 75% RH: a week of exposure (repeat)
Excerpt: Although amorphous, salts that were produced earlier were exposed to Humidity through saturated NaCl solution (75% RH at room temperature) for stability assessment.
Other salts of SBT-020 that were made during the initial screening that were missing in Table 13 were exposed to 75% RH. The missing salts were Maleate, Salicylate, Tartarate (repeat), Succinate and Phosphate (repeat).

Row | Compound | pKa1 [1] | behaviour on exposure to 75% RH [3] | further results
1 | O=S(=O)(O)c1ccccc1 [Benzene sulfonic acid] | −2.8 | – | –
2 | Br [Hydrobromic acid] | −8 | – | –
3 | O=C(O)CC(O)C(=O)O (stereo not shown) [Malic acid] | 3.4 | – | pKa2 [1]: 5.2
4 | N=C(N)NCCC[C@@H](NC(=O)[C@@H](N)Cc1ccccc1)C(=O)N[C@@H](Cc1ccccc1)C(=O)N[C@@H](CCCCN)C(N)=O [Tosylate] (H-F[dR]FK-NH2) | – | – | solubility [2]: > 100 mg/mL; physical stability upon humidity exposure ([3]; saturated NaCl solution, 75% RH at room temperature, amorphous salts): demonstrated physical stability upon humidity exposure; physical stability upon humidity exposure ([3]; saturated NaCl solution, 75% RH at room temperature, amorphous salts, listed as tosylate): best stability under humidity exposure
5 | Phosphate | – | became wet, though they did not deliquesce even after a week | physical stability upon humidity exposure [3]: demonstrated physical stability upon humidity exposure
6 | Tartarate | – | became wet, though they did not deliquesce even after a week | –

Source: US11325943B2, “Crystalline salt forms of SBT-20” (priority 2017, dated 2022)
